# What was measured:
# Experiment in all cases: relative viability (nuclei count vs DMSO), 5 days (fraction); higher = more cells survive
# Crenolanib + Trametinib = compound: CC1(COc2ccc3c(c2)ncn3-c2ccc3cccc(N4CCC(N)CC4)c3n2)COC1 [Crenolanib] + CC(=O)Nc1cccc(-n2c(=O)n(C3CC3)c(=O)c3c(Nc4ccc(I)cc4F)n(C)c(=O)c(C)c32)c1 [Trametinib] (partner 0.02 µM)
# Summary of the method: (§1)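 Nuclei were stained with Hoechst during a one-step fixation (final 0.05% Triton X-100, 1% formaldehyde, 1 ug/ml Hoechst) carried out 5 days after dosing, then counted on 4× images. The cells, lung cancer lines in 1536-well plates, had been dosed by pin tool the day after seeding with one drug alone or a fixed anchor-drug dose plus five library-drug doses (not always all listed) in √10 steps. Relative viability is the nuclei count in treated wells divided by that in vehicle wells, and each value is the median of duplicate plates.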
# Crenolanib + Phenformin = compound: CC1(COc2ccc3c(c2)ncn3-c2ccc3cccc(N4CCC(N)CC4)c3n2)COC1 [Crenolanib] + N=C(N)NC(=N)NCCc1ccccc1 [Phenformin] (partner 250 µM)
# Summary of the method: as §1
# Crenolanib + Decitabine = compound: CC1(COc2ccc3c(c2)ncn3-c2ccc3cccc(N4CCC(N)CC4)c3n2)COC1 [Crenolanib] + Nc1ncn([C@H]2C[C@H](O)[C@@H](CO)O2)c(=O)n1 [Decitabine] (partner 2 µM)
# Summary of the method: as §1
# Tivantinib + Navitoclax = compound: O=C1NC(=O)[C@@H](c2cn3c4c(cccc24)CCC3)[C@@H]1c1c[nH]c2ccccc12 [Tivantinib] + CC1(C)CCC(c2ccc(Cl)cc2)=C(CN2CCN(c3ccc(C(=O)NS(=O)(=O)c4ccc(N[C@H](CCN5CCOCC5)CSc5ccccc5)c(S(=O)(=O)C(F)(F)F)c4)cc3)CC2)C1 [Navitoclax] (partner 0.5 µM)
# Summary of the method: as §1
Cell Line,relative viability (Crenolanib + Trametinib; first compound 0.01 µM),relative viability (Crenolanib + Trametinib; first compound 0.03162 µM),relative viability (Crenolanib + Trametinib; first compound 0.1 µM),relative viability (Crenolanib + Trametinib; first compound 0.3162 µM),relative viability (Crenolanib + Trametinib; first compound 1 µM),relative viability (Crenolanib + Phenformin; first compound 0.01 µM),relative viability (Crenolanib + Phenformin; first compound 0.03162 µM),relative viability (Crenolanib + Phenformin; first compound 0.1 µM),relative viability (Crenolanib + Phenformin; first compound 0.3162 µM),relative viability (Crenolanib + Phenformin; first compound 1 µM),relative viability (Crenolanib + Decitabine; first compound 0.01 µM),relative viability (Crenolanib + Decitabine; first compound 0.03162 µM),relative viability (Crenolanib + Decitabine; first compound 0.1 µM),relative viability (Crenolanib + Decitabine; first compound 0.3162 µM),relative viability (Crenolanib + Decitabine; first compound 1 µM),relative viability (Tivantinib + Navitoclax; first compound 0.01 µM),relative viability (Tivantinib + Navitoclax; first compound 0.03162 µM),relative viability (Tivantinib + Navitoclax; first compound 0.1 µM),relative viability (Tivantinib + Navitoclax; first compound 0.3162 µM)
NCI-H1993,0.509,0.512,0.56,0.505,0.501,0.486,0.513,0.493,0.533,0.499,0.578,0.629,0.615,0.62,0.651,1.04,0.929,1.06,0.681
NCI-H1734,0.768,0.725,0.682,0.806,0.765,0.38,0.405,0.387,0.421,0.39,0.55,0.549,0.507,0.591,0.507,0.849,0.86,0.802,0.896
NCI-H1666,0.887,0.824,0.857,0.985,0.83,0.56,0.57,0.565,0.557,0.541,0.757,0.576,0.663,0.692,0.806,0.94,0.79,0.961,0.568
NCI-H460,0.13,0.169,0.151,0.17,0.133,0.549,0.514,0.518,0.506,0.473,0.261,0.475,0.442,0.682,0.555,1.06,1.02,0.988,1.13
LCLC-97TM1,0.215,0.176,0.186,0.188,0.199,0.476,0.477,0.457,0.455,0.455,0.203,0.221,0.193,0.226,0.208,0.423,0.28,0.358,0.398
LOU-NH91,0.826,0.793,0.774,0.879,0.788,0.862,0.657,0.711,0.667,0.692,0.863,0.792,0.822,0.856,0.853,0.651,0.637,0.622,0.355
NCI-H838,0.564,0.501,0.489,0.53,0.439,0.562,0.586,0.632,0.539,0.527,0.482,0.463,0.45,0.466,0.418,1.06,1.13,1.06,1.2
NCI-H1437,0.677,0.572,0.487,0.521,0.602,0.33,0.316,0.301,0.31,0.29,0.634,0.551,0.527,0.562,0.512,1.1,1.11,0.968,1.1
NCI-H2087,0.234,0.227,0.207,0.207,0.193,0.466,0.488,0.434,0.524,0.471,0.267,0.341,0.427,0.303,0.335,1.14,0.981,0.972,1.03

# — the supplement of paper PMC10307832
